Here are results for three compounds from patent publication US20140287916A1, “PESTICIDAL COMPOUNDS” (SYNGENTA PARTICIPATIONS AG, priority 2011, published 2014).

In the case of `O=C(NCC1(c2ncc(C(F)(F)F)s2)CC1)c1ccccc1C(F)(F)F` [A.29, 2-(trifluoromethyl)-N-[[1-[5-(trifluoromethyl)thiazol-2-yl]cyclopropyl]methyl]benzamide], the melting point (usually the temperature of the solid-liquid transition) was 94 to 96 °C.

Compound `O=C(NCC1(c2nc(C3CC3)cs2)CC1)c1ccccc1C(F)(F)F` [A.10, N-[[1-(4-cyclopropylthiazol-2-yl)cyclopropyl]methyl]-2-(trifluoromethyl)benzamide] showed a melting point of 83 to 84 °C.

With `O=C(NCC1(c2nc(Cl)cs2)CC1)c1cccnc1C(F)(F)F` [A.21, N-[[1-(4-chlorothiazol-2-yl)cyclopropyl]methyl]-2-(trifluoromethyl)pyridine-3-carboxamide], the melting point was 146 to 147 °C.
